Assay results taken from US10758534B2 (Vertex Pharmaceuticals Incorporated, priority 2014, dated 2020).

Target: T1, F508del (Homo sapiens, UniProt P13569, DEL508-508)
T1 construct: expressed in transfected cells
Experiment: Protocol 1: membrane potential optical assay (FLIPR III, voltage sensing dye), identification of potentiator compounds
Type: cell-based
Details: Table 3, compounds of Table 1
How it was run: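 Membrane potential in forskolin-activated, temperature-rescued F508del NIH 3T3 cells is followed with a voltage-sensing dye on FLIPR III. A chloride ion gradient created at the single addition step provides the driving force, after prior compound treatment.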

T1 sequence (P13569 with tags, fused parts or gaps DEL508-508): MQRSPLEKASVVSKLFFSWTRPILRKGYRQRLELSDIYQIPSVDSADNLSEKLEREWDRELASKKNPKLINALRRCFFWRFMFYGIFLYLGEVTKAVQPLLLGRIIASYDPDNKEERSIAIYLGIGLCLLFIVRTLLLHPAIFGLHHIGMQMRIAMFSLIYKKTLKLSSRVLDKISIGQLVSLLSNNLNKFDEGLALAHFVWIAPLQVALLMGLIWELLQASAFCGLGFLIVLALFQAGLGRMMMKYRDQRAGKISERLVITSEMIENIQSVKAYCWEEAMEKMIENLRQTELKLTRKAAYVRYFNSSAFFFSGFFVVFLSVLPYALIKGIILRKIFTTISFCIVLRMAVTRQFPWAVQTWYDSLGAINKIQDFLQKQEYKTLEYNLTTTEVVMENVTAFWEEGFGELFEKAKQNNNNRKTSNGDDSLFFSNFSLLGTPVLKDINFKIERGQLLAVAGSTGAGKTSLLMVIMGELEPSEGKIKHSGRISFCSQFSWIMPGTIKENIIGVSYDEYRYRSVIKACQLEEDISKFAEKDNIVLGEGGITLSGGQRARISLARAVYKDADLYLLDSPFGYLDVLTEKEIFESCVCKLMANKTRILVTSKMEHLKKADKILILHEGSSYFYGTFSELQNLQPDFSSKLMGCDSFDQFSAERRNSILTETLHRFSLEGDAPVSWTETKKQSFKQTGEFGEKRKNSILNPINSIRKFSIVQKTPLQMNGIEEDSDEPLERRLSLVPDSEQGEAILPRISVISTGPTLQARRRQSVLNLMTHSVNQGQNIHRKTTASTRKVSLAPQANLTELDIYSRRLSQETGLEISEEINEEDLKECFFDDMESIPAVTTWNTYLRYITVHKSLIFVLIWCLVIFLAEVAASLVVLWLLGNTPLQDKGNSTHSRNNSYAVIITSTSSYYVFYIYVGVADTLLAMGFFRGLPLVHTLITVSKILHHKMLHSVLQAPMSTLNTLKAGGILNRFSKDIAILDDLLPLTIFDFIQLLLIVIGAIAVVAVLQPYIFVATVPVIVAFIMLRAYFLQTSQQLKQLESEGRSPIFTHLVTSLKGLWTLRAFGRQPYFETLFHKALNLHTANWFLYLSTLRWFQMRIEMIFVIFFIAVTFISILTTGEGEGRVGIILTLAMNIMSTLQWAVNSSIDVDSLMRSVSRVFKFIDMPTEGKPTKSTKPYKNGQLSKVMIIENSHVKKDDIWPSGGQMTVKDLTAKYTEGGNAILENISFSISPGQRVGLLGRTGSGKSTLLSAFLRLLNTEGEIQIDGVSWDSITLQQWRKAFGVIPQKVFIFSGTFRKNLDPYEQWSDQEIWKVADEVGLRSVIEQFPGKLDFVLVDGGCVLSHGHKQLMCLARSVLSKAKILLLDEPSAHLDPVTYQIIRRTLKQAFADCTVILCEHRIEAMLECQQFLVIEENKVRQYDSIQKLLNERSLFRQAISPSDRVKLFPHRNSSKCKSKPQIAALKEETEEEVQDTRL

Row | Structure (SMILES) | EC30
1 | COc1ncccc1S(=O)(=O)NC(=O)c1cc2c(nc1Oc1ccc(C)cc1C)C(C)(C)CCC2 [Compound 1347, 2-(2,4-dimethylphenoxy)-N-[(2-methoxy-3-pyridyl)sulfonyl]-8,8-dimethyl-6,7-dihydro-5H-quinoline-3-carboxamide] | +++ (“+++” means <3 uM)
2 | C[C@@H]1CN(c2nc(C3CC3)ccc2C(=O)NS(=O)(=O)c2cccc(N)n2)C(C)(C)C1 [Compound 1627, N-[(6-amino-2-pyridyl)sulfonyl]-6-cyclopropyl-2-[(4S)-2,2,4-trimethylpyrrolidin-1-yl]pyridine-3-carboxamide] | +++ (“+++” means <3 uM)
3 | C[C@@H]1CN(c2nc(-c3cc(F)cc(F)c3F)ccc2C(=O)NS(=O)(=O)c2ccc[nH]c2=O)C(C)(C)C1 [Compound 1837, N-[(2-oxo-1H-pyridin-3-yl)sulfonyl]-6-(2,3,5-trifluorophenyl)-2-[(4S)-2,2,4-trimethylpyrrolidin-1-yl]pyridine-3-carboxamide] | +++ (“+++” means <3 uM)
4 | CCOc1cccc2c1CN(Cc1c(C)cc(C)cc1C)C2(C)C(=O)NS(=O)(=O)c1ccc(N)cc1 (centres unmarked) [Compound 1480, N-(4-aminophenyl)sulfonyl-4-ethoxy-1-methyl-2-[(2,4,6-trimethylphenyl)methyl]isoindoline-1-carboxamide] | +++ (“+++” means <3 uM)
5 | Cc1cc(C)c(CN2CCc3ccccc3CC2C(=O)NS(=O)(=O)c2ccccc2)c(C)c1 (centres unmarked) [Compound 1039, N-(benzenesulfonyl)-3-[(2,4,6-trimethylphenyl)methyl]-1,2,4,5-tetrahydro-3-benzazepine-4-carboxamide] | +++ (“+++” means <3 uM)
6 | CC1(Cn2nc(C(C)(C)C)cc2C(=O)NS(=O)(=O)c2cccc(N)c2)CCCCC1 [Compound 1152, N-(3-aminophenyl)sulfonyl-5-tert-butyl-2-[(1-methylcyclohexyl)methyl]pyrazole-3-carboxamide] | + (“+” means greater than 10 uM)
7 | Cc1cc(C)c(Oc2nc(-c3ccc(CO)cc3)ccc2C(=O)NS(=O)(=O)c2cccc(N)n2)c(C)c1 [Compound 1183, N-[(6-amino-2-pyridyl)sulfonyl]-6-[4-(hydroxymethyl)phenyl]-2-(2,4,6-trimethylphenoxy)pyridine-3-carboxamide] | + (“+” means greater than 10 uM)
8 | CC(C)COc1cc(F)cc(-c2ccc(C(=O)NS(=O)(=O)c3cccc(N)n3)c(OCCC3CCOCC3)n2)c1 [Compound 1579, N-[(6-amino-2-pyridyl)sulfonyl]-6-(3-fluoro-5-isobutoxy-phenyl)-2-(2-tetrahydropyran-4-ylethoxy)pyridine-3-carboxamide] | +++ (“+++” means <3 uM)
9 | CC(C)COc1cc(F)cc(-c2ccc(C(=O)NS(=O)(=O)c3cccc(N)n3)c(N3CC(C)CCC3(C)C)n2)c1 (centres unmarked) [Compound 1995, N-[(6-amino-2-pyridyl)sulfonyl]-6-(3-fluoro-5-isobutoxy-phenyl)-2-(2,2,5-trimethyl-1-piperidyl)pyridine-3-carboxamide] | +++ (“+++” means <3 uM)
10 | C[C@@H]1CN(c2nc(C(C)(C)C)c(C3=CC4CCC3C4)cc2C(=O)NS(=O)(=O)c2cccc(N)n2)C(C)(C)C1 (stereo partly drawn) [Compound 1577, N-[(6-amino-2-pyridyl)sulfonyl]-5-(3-bicyclo[2.2.1]hept-2-enyl)-6-tert-butyl-2-[(4S)-2,2,4-trimethylpyrrolidin-1-yl]pyridine-3-carboxamide] | +++ (“+++” means <3 uM)
11 | CC1CN(c2ncc(-c3cccc(OC(C)C)c3)cc2C(=O)NS(=O)(=O)c2cccc(N)n2)C(C)(C)C1 (centres unmarked) [Compound 1804, N-[(6-amino-2-pyridyl)sulfonyl]-5-(3-isopropoxyphenyl)-2-(2,2,4-trimethylpyrrolidin-1-yl)pyridine-3-carboxamide] | +++ (“+++” means <3 uM)
12 | CC1(C)CCCc2cc(C(=O)NS(=O)(=O)c3ccc(N)cc3)c(-c3ccccc3)nc21 [Compound 1190, N-(4-aminophenyl)sulfonyl-8,8-dimethyl-2-phenyl-6,7-dihydro-5H-quinoline-3-carboxamide] | +++ (“+++” means <3 uM)
13 | Cc1cc(C)c(Oc2nc(C3=CC(C)(C)OCC3)ccc2C(=O)NS(=O)(=O)c2cccc(N)n2)c(C)c1 [Compound 1460, N-[(6-amino-2-pyridyl)sulfonyl]-6-(6,6-dimethyl-2,3-dihydropyran-4-yl)-2-(2,4,6-trimethylphenoxy)pyridine-3-carboxamide] | +++ (“+++” means <3 uM)
14 | Cc1cc(C)c(Oc2nc(-c3cccc(C(C)C)c3)ccc2C(=O)NS(=O)(=O)c2cccc(N)n2)c(C)c1 [Compound 1016, N-[(6-amino-2-pyridyl)sulfonyl]-6-(3-isopropylphenyl)-2-(2,4,6-trimethylphenoxy)pyridine-3-carboxamide] | +++ (“+++” means <3 uM)
15 | CC(C)COc1cc(F)cc(-c2ccc(C(=O)NS(=O)(=O)c3ccc(O)c(N)n3)c(N3C[C@@H](C)CC3(C)C)n2)c1 [Compound 1563, N-[(6-amino-5-hydroxy-2-pyridyl)sulfonyl]-6-(3-fluoro-5-isobutoxy-phenyl)-2-[(4S)-2,2,4-trimethylpyrrolidin-1-yl]pyridine-3-carboxamide] | +++ (“+++” means <3 uM)
16 | Cc1ccccc1Oc1nc(C(C)(C)C)ccc1C(=O)NS(=O)(=O)c1cccc(N)n1 [Compound 1318, N-[(6-amino-2-pyridyl)sulfonyl]-6-tert-butyl-2-(2-methylphenoxy)pyridine-3-carboxamide] | +++ (“+++” means <3 uM)
17 | COc1cccc(F)c1-c1ccc(C(=O)NS(=O)(=O)c2cccc(N)n2)c(Oc2c(C)cc(C)cc2C)n1 [Compound 920, N-[(6-amino-2-pyridyl)sulfonyl]-6-(2-fluoro-6-methoxy-phenyl)-2-(2,4,6-trimethylphenoxy)pyridine-3-carboxamide] | +++ (“+++” means <3 uM)
18 | Cc1cc(C)c(Oc2nc(C(C)(C)C)ccc2C(=O)NS(=O)(=O)c2nccnc2N)c(C)c1 [Compound 1208, N-(3-aminopyrazin-2-yl) sulfonyl-6-tert-butyl-2-(2,4,6-trimethylphenoxy)pyridine-3-carboxamide] | +++ (“+++” means <3 uM)
19 | CC(C)COc1cc(F)cc(-c2ccc(C(=O)NS(=O)(=O)c3cccc(N)n3)c(N3CCC(c4ccccc4)C3C)n2)c1 (centres unmarked) [Compound 1319, N-[(6-amino-2-pyridyl)sulfonyl]-6-(3-fluoro-5-isobutoxy-phenyl)-2-(2-methyl-3-phenyl-pyrrolidin-1-yl)pyridine-3-carboxamide] | +++ (“+++” means <3 uM)
20 | CC1CN(c2nc(C(C)(C)C)c(C3=CCN(C(=O)OCc4ccccc4)CC3)cc2C(=O)NS(=O)(=O)c2cccc(N)n2)C(C)(C)C1 (centres unmarked) [Compound 1404, benzyl 4-[5-[(6-amino-2-pyridyl)sulfonylcarbamoyl]-2-tert-butyl-6-(2,2,4-trimethylpyrrolidin-1-yl)-3-pyridyl]-3,6-dihydro-2H-pyridine-1-carboxylate] | +++ (“+++” means <3 uM)
21 | CC(=O)N(C)C1CCN(S(=O)(=O)NC(=O)c2ccc(-c3cc(F)cc(OCC(C)C)c3)nc2N2CC(C)CC2(C)C)C1 (centres unmarked) [Compound 1533, N—[3-[acetyl(methyl)amino]pyrrolidin-1-yl]sulfonyl-6-(3-fluoro-5-isobutoxy-phenyl)-2-(2,2,4-trimethylpyrrolidin-1-yl)pyridine-3-carboxamide] | +++ (“+++” means <3 uM)
22 | COc1cccc(-c2ccc(C(=O)NS(=O)(=O)c3cccc(N)n3)c(N3[C@H](C)CC[C@@H]3C)n2)n1 [Compound 1141, N-[(6-amino-2-pyridyl)sulfonyl]-2-[(2S,5R)-2,5-dimethylpyrrolidin-1-yl]-6-(6-methoxy-2-pyridyl)pyridine-3-carboxamide] | ++ (“++” means between 3 uM and 10 uM)
23 | CCOCCOCCOc1ncc(-c2ccc(C(=O)NS(=O)(=O)c3cccnc3N)c(N3C[C@@H](C)CC3(C)C)n2)cc1C [Compound 1783, N-[(2-amino-3-pyridyl)sulfonyl]-6-[6-[2-(2-ethoxyethoxy)ethoxy]-5-methyl-3-pyridyl]-2-[(4S)-2,2,4-trimethylpyrrolidin-1-yl]pyridine-3-carboxamide] | +++ (“+++” means <3 uM)
24 | CC1CN(c2ncccc2C(=O)NS(=O)(=O)c2cccc(NCc3ccccc3)n2)C(C)(C)C1 (centres unmarked) [Compound 1938, N—[[6-(benzylamino)-2-pyridyl]sulfonyl]-2-(2,2,4-trimethylpyrrolidin-1-yl)pyridine-3-carboxamide] | +++ (“+++” means <3 uM)
25 | CC(C)Oc1ccc(-c2ccc(C(=O)NS(=O)(=O)c3cccc(N)n3)c(N3CCCC(C)(C)C3)n2)cn1 [Compound 1283, N-[(6-amino-2-pyridyl)sulfonyl]-2-(3,3-dimethyl-1-piperidyl)-6-(6-isopropoxy-3-pyridyl)pyridine-3-carboxamide] | +++ (“+++” means <3 uM)
26 | Cc1ccc(-c2ccc(C(=O)NS(=O)(=O)c3cccc(N)n3)c(N3[C@H](C)CC[C@@H]3C)n2)cc1 [Compound 1078, N-[(6-amino-2-pyridyl)sulfonyl]-2-[(2R,5S)-2,5-dimethylpyrrolidin-1-yl]-6-(p-tolyl)pyridine-3-carboxamide] | ++ (“++” means between 3 uM and 10 uM)
27 | CC(C)Oc1ccc(-c2ccc(C(=O)NS(=O)(=O)c3cccc(N)n3)c(N3C(C)CCC3(C)C)n2)cn1 (centres unmarked) [Compound 1040, N-[(6-amino-2-pyridyl)sulfonyl]-6-(6-isopropoxy-3-pyridyl)-2-(2,2,5-trimethylpyrrolidin-1-yl)pyridine-3-carboxamide] | +++ (“+++” means <3 uM)
28 | Cc1cn(-c2ccc(C(=O)NS(=O)(=O)c3cccnc3N)c(N3C[C@@H](C)CC3(C)C)n2)nc1OCC(C)C [Compound 1758, N-[(2-amino-3-pyridyl)sulfonyl]-6-(3-isobutoxy-4-methyl-pyrazol-1-yl)-2-[(4S)-2,2,4-trimethylpyrrolidin-1-yl]pyridine-3-carboxamide] | +++ (“+++” means <3 uM)
29 | CC1CN(c2ncccc2C(=O)NS(=O)(=O)c2cccc(OC(C)(C)C)n2)C(C)(C)C1 (centres unmarked) [Compound 1718, N-[(6-tert-butoxy-2-pyridyl)sulfonyl]-2-(2,2,4-trimethylpyrrolidin-1-yl)pyridine-3-carboxamide] | +++ (“+++” means <3 uM)
